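96-well plates; 48 h exposure; 5 concentrations. Endpoints by linear interpolation between flanking doses. Not reached: highest tested concentration assigned. GI50 = concentration required for 50% inhibition of growth.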 The source made the active and inactive calls. No stated cut-off is given here; in the data, active = GI50 up to about 1.1 µM and inactive = higher.
What was measured:
Test in all cases: NCI anticancer screen, dose series, 48 h
HCT-15 = system: HCT-15
MCF7 = system: MCF7
LOX IMVI = system: LOX IMVI
NCI-H23 = system: NCI-H23
SR = system: SR
M14 = system: M14
T47D = system: T47D
DU-145 = system: DU-145
UACC-62 = system: UACC-62
CAKI-1 = system: CAKI-1
OVCAR-3 = system: OVCAR-3
Malme-3M = system: Malme-3M
HCC 2998 = system: HCC 2998
CCRF-CEM = system: CCRF-CEM
SF-268 = system: SF-268
SF-295 = system: SF-295
MDA-N = system: MDA-N
NCI-H226 = system: NCI-H226
SK-OV-3 = system: SK-OV-3

Row | SMILES | GI50 (HCT-15) [µM] | GI50 (MCF7) | GI50 (LOX IMVI) | GI50 (NCI-H23) | GI50 (SR) | GI50 (M14) | GI50 (T47D) | GI50 (DU-145) | GI50 (UACC-62) | GI50 (CAKI-1) | GI50 (OVCAR-3) | GI50 (Malme-3M) | GI50 (HCC 2998) | GI50 (CCRF-CEM) | GI50 (SF-268) | GI50 (SF-295) | GI50 (MDA-N) | GI50 (NCI-H226) | GI50 (SK-OV-3)
1 | COc1cc2oc(-c3ccc(O)cc3)cc(=O)c2c(OC)c1OC | > 100 | > 100 µM (inactive) | > 100 µM (inactive) | > 100 µM (inactive) | > 100 µM (inactive) | > 100 µM (inactive) | 63.5 µM (inactive) | > 100 µM (inactive) | > 100 µM (inactive) | > 100 µM (inactive) | > 100 µM (inactive) | > 100 µM (inactive) | > 100 µM (inactive) | > 100 µM (inactive) | > 100 µM (inactive) | > 100 µM (inactive) | > 100 µM (inactive) | > 100 µM (inactive) | –
2 | O=Cc1ccc(OCc2cccc(COc3ccc(/C=N\Nc4ccc([N+](=O)[O-])cc4[N+](=O)[O-])cc3)n2)cc1 | > 100 | > 100 µM (inactive) | > 100 µM (inactive) | > 100 µM (inactive) | 22.1 µM (inactive) | > 100 µM (inactive) | > 100 µM (inactive) | > 100 µM (inactive) | > 100 µM (inactive) | > 100 µM (inactive) | > 100 µM (inactive) | > 100 µM (inactive) | > 100 µM (inactive) | 55.1 µM (inactive) | > 100 µM (inactive) | > 100 µM (inactive) | > 100 µM (inactive) | > 100 µM (inactive) | –
3 | C/C(=N\NC(=[Se])N1CCN(c2ccccn2)CC1)c1ccccn1 | 0.01 | 0.01 µM (active) | 0.0268 µM (active) | 3.06 µM (inactive) | 0.00622 µM (active) | 0.102 µM (active) | 0.01 µM (active) | 5.14 µM (inactive) | 1.41 µM (inactive) | 2.65 µM (inactive) | 0.01 µM (active) | 0.297 µM (active) | 11.1 µM (inactive) | – | 3.21 µM (inactive) | 2.42 µM (inactive) | 2.99 µM (inactive) | 0.912 µM (active) | 2.75 µM (inactive)
4 | O=C(O)c1nc2ccc(C(F)(F)F)cc2nc1NCc1ccc(Cl)c(Cl)c1 | 18 | 17.8 µM (inactive) | 15.1 µM (inactive) | 17.7 µM (inactive) | 15.6 µM (inactive) | 17.8 µM (inactive) | 16.6 µM (inactive) | 17 µM (inactive) | 17.1 µM (inactive) | 19.2 µM (inactive) | 7.78 µM (inactive) | – | 16.4 µM (inactive) | 23.4 µM (inactive) | – | 17.4 µM (inactive) | 19.6 µM (inactive) | 17.3 µM (inactive) | 19.4 µM (inactive)
5 | COc1c2ccoc2cc2oc(=O)ccc12 [BERGAPTEN] | > 100 | > 100 µM (inactive) | > 100 µM (inactive) | > 100 µM (inactive) | > 100 µM (inactive) | > 100 µM (inactive) | > 100 µM (inactive) | > 100 µM (inactive) | > 100 µM (inactive) | > 100 µM (inactive) | > 100 µM (inactive) | > 100 µM (inactive) | > 100 µM (inactive) | > 100 µM (inactive) | > 100 µM (inactive) | > 100 µM (inactive) | > 100 µM (inactive) | > 100 µM (inactive) | –
6 | COC(OC)C(O)C1OC=CC1n1cnc2c(N)ncnc21 (stereo unspecified) | > 100 | > 100 µM (inactive) | > 100 µM (inactive) | > 100 µM (inactive) | > 100 µM (inactive) | – | > 100 µM (inactive) | > 100 µM (inactive) | > 100 µM (inactive) | > 100 µM (inactive) | > 100 µM (inactive) | – | > 100 µM (inactive) | > 100 µM (inactive) | > 100 µM (inactive) | > 100 µM (inactive) | > 100 µM (inactive) | > 100 µM (inactive) | > 100 µM (inactive)

— ChEMBL document CHEMBL1201862, “PubChem BioAssay data set” (2004)
